Assays:
Format in all cases: physicochemical
[1] = Dynamic light scattering of LNPs: Z-average diameter, number average diameter, PDI; conditions: LNP, sg:mRNA 1:1, N/P about 6, 50/9/38/3; Table 2, Experiments 2-20
Procedure: Dynamic Light Scattering (“DLS”) is used to characterize the polydispersity index (“PDI”) and size of the LNPs of the present disclosure. DLS measures the scattering of light that results from subjecting a sample to a light source. PDI, as determined from DLS measurements, represents the distribution of particle size (around the mean particle size) in a population, with a perfectly uniform population having a PDI of zero.
LNP compositions are analyzed for average particle size, polydispersity index (PDI), total RNA content, encapsulation efficiency of RNA, and zeta potential. LNP compositions may be further characterized by lipid analysis, AF4-MALS, NTA, and/or cryo-EM. Average particle size and polydispersity are measured by dynamic light scattering (DLS) using a Malvern Zetasizer DLS instrument or Wyatt NanoStar. LNP samples were diluted with PBS buffer prior to being measured by DLS. Z-average diameter which is an intensity-based measurement of average particle size is reported along with number average diameter and PDI. A Malvern Zetasizer or Wyatt NanoStar instrument is also used to measure the zeta potential of the LNP. Samples are diluted 1:17 (50 μL into 800 μL) in 0.1× PBS, pH 7.4 prior to measurement.

[2] = RNA encapsulation efficiency of LNPs (Ribogreen fluorescence assay); conditions: LNP, sg:mRNA 1:1, N/P about 6, amine lipid/DSPC/cholesterol/PEG-2k-DMG 50/9/38/3; Table 2, Experiments 2-20
Procedure: A fluorescence-based assay (Ribogreen®, ThermoFisher Scientific) is used to determine total RNA concentration and free RNA. Encapsulation efficiency is calculated as (Total RNA-Free RNA)/Total RNA. LNP samples are diluted appropriately with 1× TE buffer containing 0.2% Triton-X 100 to determine total RNA or 1× TE buffer to determine free RNA. Standard curves are prepared by utilizing the starting RNA solution used to make the compositions and diluted in 1× TE buffer +/− 0.2% Triton-X 100. Diluted RiboGreen® dye (according to the manufacturer's instructions) is then added to each of the standards and samples and allowed to incubate for approximately 10 minutes at room temperature, in the absence of light. A SpectraMax M5 Microplate Reader (Molecular Devices) is used to read the samples with excitation, auto cutoff and emission wavelengths set to 488 nm, 515 nm, and 525 nm respectively. Total RNA and free RNA are determined from the appropriate standard curves.
Encapsulation efficiency is calculated as (Total RNA-Free RNA)/Total RNA. The same procedure may be used for determining the encapsulation efficiency of a DNA-based cargo component. In a fluorescence-based assay, for single-strand DNA Oligreen Dye may be used, and for double-strand DNA, Picogreen Dye. Alternatively, the total RNA concentration can be determined by a reverse-phase ion-pairing (RP-IP) HPLC method. Triton X-100 is used to disrupt the LNPs, releasing the RNA. The RNA is then separated from the lipid components chromatographically by RP-IP HPLC and quantified against a standard curve using UV absorbance at 260 nm.

[3] = pKa measurement of unformulated amine lipid (fluorescence, method of Jayaraman et al.); conditions: 100 μM in 0.1 M phosphate buffer, pH 2.0-12.0
Procedure: The pKa of each amine lipid was determined according to the method in Jayaraman, et al. (Angewandte Chemie, 2012) with the following adaptations. […] Lipid was diluted to 100 μM in 0.1 M phosphate buffer (Boston Bioproducts) where the pH ranged from 2.0-12.0. Fluorescence intensity was measured using excitation and emission wavelengths of 321 nm and 448 nm.

| Number mean (nm) [1] [nm] | PDI [1] | Z-avg (nm) [1] [nm] | Encapsulation (%) [2] [%] | pKa [3] | Structure (SMILES) |
| --- | --- | --- | --- | --- | --- |
| 72.42 | 0.029 | 89.07 | 95 | 6.4 | CCCCCCCCOC(=O)CCCCCCCC(=O)OCC(COC(=O)CCC(OCCCCCCCC)OCCCCCCCC)COC(=O)OCCCN(CC)CC (stereo not shown) [Compound 58, 1-(3-((4,4-bis(octyloxy)butanoyl)oxy)-2-((((3-(diethylamino)propoxy)carbonyl)oxy)methyl)propyl) 9-octyl nonanedioate] |
| 84.46 | 0.022 | 104.2 | 97 | 6.38 | CCCCCCCCOC(CCC(=O)OCC(COC(=O)CCCCCCCCCCC(=O)OCCCCC)COC(=O)OCCCN(CC)CC)OCCCCCCCC (stereo not shown) [Compound 60, 1-(3-((4,4-bis(octyloxy)butanoyl)oxy)-2-((((3-(diethylamino)propoxy)carbonyl)oxy)methyl)propyl) 12-pentyl dodecanedioate] |
| 59.35 | 0.044 | 73.46 | 98 | 6.03 | CCCCC/C=C\C/C=C\CCCCCCCC(=O)OCC(COC(=O)CCCCC(OCCCCCCCC)OCCCCCCCC)COC(=O)OCCCN(CC)CC (stereo not shown) [Compound 62, 3-((6,6-bis(octyloxy)hexanoyl)oxy)-2-((((3-(diethylamino)propoxy)carbonyl)oxy)methyl)propyl (9Z,12Z)-octadeca-9,12-dienoate] |
| 64.05 | 0.019 | 79.37 | 98 | 6.09 | CCCCC/C=C\C/C=C\CCCCCCCC(=O)OCC(COC(=O)CCCC(=O)OC(CCCCCCCC)CCCCCCCC)COC(=O)OCCCN(CC)CC (stereo not shown) [Compound 63, 3-(((3-(diethylamino)propoxy)carbonyl)oxy)-2-((((9Z,12Z)-octadeca-9,12-dienoyl)oxy)methyl)propyl heptadecan-9-yl glutarate] |
| 69.25 | 0.032 | 85.16 | 98 | 6.08 | CCCCC/C=C\C/C=C\CCCCCCCC(=O)OCC(COC(=O)CCCCCC(=O)OC(CCCCCCCC)CCCCCCCC)COC(=O)OCCCN(CC)CC (stereo not shown) [Compound 64, 1-(3-(((3-(diethylamino)propoxy)carbonyl)oxy)-2-((((9Z,12Z)-octadeca-9,12-dienoyl)oxy)methyl)propyl) 7-(heptadecan-9-yl) heptanedioate] |
| 55.76 | 0.034 | 70.19 | 98 | 5.88 | CCCCC/C=C\C/C=C\CCCCCCCC(=O)OCC(COC(=O)OCCCN(CC)CC)COC(=O)C(CCCCCC)CCCCCCCC (stereo not shown) [Compound 65, 3-(((3-(diethylamino)propoxy)carbonyl)oxy)-2-(((2-hexyldecanoyl)oxy)methyl)propyl (9Z,12Z)-octadeca-9,12-dienoate] |
| 44.03 | 0.071 | 58.54 | 98 | 6.06 | CCCCC/C=C\C/C=C\CCCCCCCC(=O)OCC(COC(=O)CC(CCCCCCCC)CCCCCCCC)COC(=O)OCCCN(CC)CC (stereo not shown) [Compound 66, 3-(((3-(diethylamino)propoxy)carbonyl)oxy)-2-(((3-octylundecanoyl)oxy)methyl)propyl (9Z,12Z)-octadeca-9,12-dienoate] |
| 56.56 | 0.025 | 69.85 | 99 | 6.19 | CCCCC/C=C\C/C=C\CCCCCCCC(=O)OCC(COC(=O)CCCC(CCCCCCC)CCCCCCC)COC(=O)OCCCN(CC)CC (stereo not shown) [Compound 67, 3-(((3-(diethylamino)propoxy)carbonyl)oxy)-2-(((5-heptyldodecanoyl)oxy)methyl)propyl (9Z,12Z)-octadeca-9,12-dienoate] |
| 60.04 | 0.008 | 72.71 | 98 | 6.1 | CCCCC/C=C\C/C=C\CCCCCCCC(=O)OCC(COC(=O)CCCCCC(CCCCCC)CCCCCC)COC(=O)OCCCN(CC)CC (stereo not shown) [Compound 68, 3-(((3-(diethylamino)propoxy)carbonyl)oxy)-2-(((7-hexyltridecanoyl)oxy)methyl)propyl (9Z,12Z)-octadeca-9,12-dienoate] |
| 68.12 | 0.026 | 85.11 | 98 | 6.18 | CCCCCC/C=C\COC(=O)CCCCCCCCCC(=O)OCC(COC(=O)CCC(OCCCCCCCC)OCCCCCCCC)COC(=O)OCCCN(CC)CC (stereo not shown) [Compound 69, (Z)-1-(3-((4,4-bis(octyloxy)butanoyl)oxy)-2-((((3-(diethylamino)propoxy)carbonyl)oxy)methyl)propyl) 11-(non-2-en-1-yl) undecanedioate] |
| 66.78 | 0.017 | 83.47 | 98 | 6.02 | CCCCCC/C=C\COC(=O)CCCCCCCCCCCC(=O)OCC(COC(=O)CCC(OCCCCCCCC)OCCCCCCCC)COC(=O)OCCCN(CC)CC (stereo not shown) [Compound 70, (Z)-1-(3-((4,4-bis(octyloxy)butanoyl)oxy)-2-((((3-(diethylamino)propoxy)carbonyl)oxy)methyl)propyl) 13-(non-2-en-1-yl) tridecanedioate] |
| 55.14 | 0.037 | 68.66 | 98 | 6.09 | CCCCC/C=C\C/C=C\CCCCCCCC(=O)OCC(COC(=O)CCC(OCCCCCCCC)OCCCCCCCC)OC(=O)OCCCN(CC)CC (stereo not shown) [Compound 97, 3-((4,4-bis(octyloxy)butanoyl)oxy)-2-(((3-(diethylamino)propoxy)carbonyl)oxy)propyl (9Z,12Z)-octadeca-9,12-dienoate] |
| 57 | 0.02 | 70 | 99 | 6.4 | CCCCC/C=C\C/C=C\CCCCCCCC(=O)OCC(COCCN(CC)CC)COC(=O)CCC(OCCCCCCCC)OCCCCCCCC (stereo not shown) [Compound 98, 3-((4,4-bis(octyloxy)butanoyl)oxy)-2-((2-(diethylamino)ethoxy)methyl)propyl (9Z,12Z)-octadeca-9,12-dienoate] |
| 74 | 0.003 | 89 | 99 | 7.1 | CCCCC/C=C\C/C=C\CCCCCCCC(=O)OCC(COCCCN(CC)CC)COC(=O)CCC(OCCCCCCCC)OCCCCCCCC (stereo not shown) [Compound 99, 3-((4,4-bis(octyloxy)butanoyl)oxy)-2-((3-(diethylamino)propoxy)methyl)propyl (9Z,12Z)-octadeca-9,12-dienoate] |
